The source of these data is patent US20170296498A1, “Rapid Relief of Motor Fluctuations in Parkinson's Disease” (Civitas Therapeutics, Inc., priority 2014, published 2017).

The assay deals with Parkinson's disease patients in the OFF state. Nature of the assay: Phase 2 study of pulmonary levodopa in PD patients: plasma levodopa concentration vs UPDRS. Format: in vivo, human. The following applies: FIG. 8, plasma concentration vs UPDRS. On the procedure:
The twenty four PD (24) patients treated in this study underwent serial evaluations of L-dopa plasma levels, motor response, and safety at each visit. The patients were administered the study drug in the OFF state with the serial evaluations starting prior to dosing and continuing for up to 180 minutes post-dose. Motor function was measured using a tapping test, the Unified Parkinson's Disease Rating Scale Part III (UPDRS III), and subjective evaluation of “meaningful” ON and OFF. Safety parameters monitored included pulmonary function, clinical laboratory data, EGCs, and vital signs (blood pressure, heart rate, and orthostatic blood pressure). This study was designed to measure the time, magnitude, and durability of pulmonary levodopa's effect on motor function, to evaluate the safety and tolerability of pulmonary levodopa in Parkinson's disease patients.
In FIG. 8, patient's plasma levodopa concentrations are being compared to UPDRS scores. UPDRS is a standard test for Parkinson's disease patients to test their response to drug treatment and their disease progression. […] The different baseline levels of levodopa plasma relate to the fact that each patient has a different effective dose or effective concentration for the levodopa to have an effect on each patient. […]

Each structure is given as a SMILES string.

For `N[C@@H](Cc1ccc(O)c(O)c1)C(=O)O` [L-Dopa, levodopa], the “levodopa plasma concentration difference between being in the off state and in the on state” value was 200 to 400 ng/mL.
